# In PubChem BioAssay AID602236 (The Scripps Research Institute Molecular Screening Center, 2012):
# Activity calls are given as the source filed them.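 The calls were made as follows: active = IC50 of 10 µM or lower; inactive = IC50 above 10 µM.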
# System: HEK-293 Gal4-VP16 UAS luciferase reporter, luminescence
# Experiment: GAL4-VP16 reporter repression curves – cell-based, luminescence, high throughput, SRC1 series, counter-screen for SRC1 inhibitor project, dose response (AID 602236);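 also: inhibitor potency where hits lower luciferase light from Gal4-VP16 transactivation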
row,Compound,IC50
1,O=C1c2cccc(OCc3ccc(F)cc3)c2CCN1Cc1ccccc1,10.7 µM (inactive)
2,S=C(c1ccc(-c2ccccc2)cc1)N1CCOCC1,24 µM (inactive)
3,Cc1nc(N2CCC(C(N)=O)CC2)c2c(-c3cccs3)csc2n1,11.6 µM (inactive)
4,O=C(N/N=C(\c1ccccc1)c1ccccn1)c1ccccc1Cl,10.8 µM (inactive)
5,CCN(Cc1ccncc1)C(=O)CC1C(=O)NCCN1Cc1ccc(F)c(F)c1 (stereo not given),15.8 µM (inactive)
6,Cc1ccc(OCC(=O)c2cc(C)n(-c3ccccc3)c2C)c([N+](=O)[O-])n1,12.2 µM (inactive)
7,COc1ccc(Nc2ncnc3ccc(C)cc23)cc1,8.4 µM
8,Cc1ccc(NC(=O)NC2CC(=O)N(c3ccc4c(c3)OCCO4)C2)cc1C (stereo not given),20.6 µM (inactive)
9,Cc1ccc(OCC(=O)c2cc(C)n(Cc3cccs3)c2C)c([N+](=O)[O-])n1,12.1 µM (inactive)
10,CS(=O)(=O)Nc1cccc(NC(=O)C2Cc3c(-c4ccco4)ccnc3O2)c1 (stereo not given),19.3 µM (inactive)
11,COC(=O)N(NC(=O)C(O)(CCC(C)C)CCC(C)C)c1ccccc1,> 35.9 µM (inactive)
12,COc1ccc(/C=C2/SC(=S)N(CCC(=O)O)C2=O)cc1,> 35.9 µM (inactive)
13,CCc1ccc(-c2nc(CSCC(=O)NCc3ccco3)c(C)o2)cc1,21.8 µM (inactive)
14,CCOc1ccc(/C=C2\SC(=S)N(CCC(=O)O)C2=O)cc1,> 35.9 µM (inactive)
15,CC(C)n1c(-c2cccnc2)nc2cnccc21,9.47 µM
16,O=C(OC(c1ccccc1)c1nccc2ccccc12)c1ccccc1 (stereo not given),23.9 µM (inactive)
17,O=C(O)c1ccccc1C(=O)Nc1ccc(Oc2cccc3ccccc23)cc1,> 35.9 µM (inactive)
18,COc1cccc(/C=N/NC(=O)C(=O)Nc2ccccc2OC(F)(F)C(F)F)c1O,10.7 µM (inactive)
19,CCC(=O)Oc1c(C(=O)CC)cc2c(C)cc(=O)oc2c1C,18.9 µM (inactive)
20,CCn1ccnc1CN(C)Cc1cn[nH]c1-c1ccc(F)cc1F,11 µM (inactive)
21,O=C(NC(=S)Nc1ccc(N2CCN(C(=O)c3ccccc3)CC2)cc1)c1cccs1,10.5 µM (inactive)
22,Cc1ccccc1C(=O)/C(C#N)=N/Nc1c(C)n(C)n(-c2ccccc2)c1=O,5.6 µM
23,COc1ccc2ncn(-c3ccccc3)c2c1,5.95 µM

row,Compound,IC50
1,Cn1nc(C(F)(F)F)c(C#N)c1N1CCN(c2ccc(F)cc2)CC1,7.86 µM
2,CN1CCN(c2cccc3c2C(=O)c2ccccc2C3=O)CC1,23.8 µM (inactive)
3,c1nc2sc3c(c2c2nnnn12)CCCC3,13.3 µM (inactive)
4,COc1ccc(-c2ncncc2-c2ccccc2)c(O)c1,19.4 µM (inactive)
5,c1cc2[nH]snc2c2nc(C3CC3)nc12,3.5 µM
6,CC(C)Cn1c(N)c(C(=O)COC(=O)c2cc3ccccc3cc2O)c(=O)n(C)c1=O,29.3 µM (inactive)
7,CCC(=O)c1ccc(Oc2nc3c(c(=O)n(C)c(=O)n3C)n2CC)cc1,12.4 µM (inactive)
8,Cc1c(C(=O)N/N=C/C(C)C)[nH]c2ccc([N+](=O)[O-])cc12,21.3 µM (inactive)
9,COc1ccccc1N(C(=O)CCl)c1cn(C(C)=O)c2ccccc12,9.22 µM
10,O=[N+]([O-])c1cccc2c1ccc1ncccc12,12.8 µM (inactive)
11,OCCN(CCO)CC(O)COc1ccc(C23CC4CC(CC(C4)C2)C3)cc1 (stereo not given),> 35.9 µM (inactive)
12,COc1ccc2c(=O)cc(-c3ccncc3)oc2c1OC,> 12 µM (inactive)
13,COc1cc(/C=C2\CC(C(C)(C)C)C/C(=C\c3cc(OC)c(OC)c(OC)c3)C2=O)cc(OC)c1OC (stereo not given),5.96 µM
14,Cc1ccc(S(=O)(=O)N2[C@@H](c3ccc(C(C)(C)C)cc3)C(C(=O)O)=CC[C@H]2c2ccc(Cl)cc2)cc1,16 µM (inactive)
15,O=C(Nc1cccc(Cl)c1)Nc1nnc(-c2ccncc2)s1,5.14 µM
16,Cc1ccc(C(=O)Nc2sc(C)c(-c3ccccc3)c2C(N)=O)cc1[N+](=O)[O-],> 35.9 µM (inactive)
17,COc1cc(OC)c2cc(C(=O)N/N=C/c3cccc(OC)c3O)[nH]c2c1,9.42 µM
18,C=C1C(=O)[C@@]23C[C@H]4[C@@H]5[C@@]6(C)CCC[C@@]57[C@@H]2[C@@H](O)[C@@H]1C[C@H]3[C@H]7N4C6,8.05 µM
19,CCN(c1ccccc1)S(=O)(=O)c1cc(C(=O)Nc2ccc(Br)cc2)ccc1F,8.24 µM
20,c1ccc(-c2csc3ncnc(NCCN4CCOCC4)c23)cc1,18.7 µM (inactive)
21,CN(C)C=Nc1c(C(=O)c2ccccc2)sc2nccc(N(C)C)c12,> 35.9 µM (inactive)
22,CC[C@@]1(O)C(=O)OCc2c1cc1n(c2=O)Cc2cc3c(NC(=O)CN)cccc3nc2-1,> 35.9 µM (inactive)
